Measurements as given in patent publication US20160130278A1 (TAISHO PHARMACEUTICAL CO., LTD, priority 2013, published 2016).

Target: T1, human type 1 glycine transporter (GlyT1) (Homo sapiens, UniProt P48067)
T1 construct: T98G cells (glioma cells) expressing human type 1 glycine transporter (GlyT1) were used
T1 sequence (P48067 1-706): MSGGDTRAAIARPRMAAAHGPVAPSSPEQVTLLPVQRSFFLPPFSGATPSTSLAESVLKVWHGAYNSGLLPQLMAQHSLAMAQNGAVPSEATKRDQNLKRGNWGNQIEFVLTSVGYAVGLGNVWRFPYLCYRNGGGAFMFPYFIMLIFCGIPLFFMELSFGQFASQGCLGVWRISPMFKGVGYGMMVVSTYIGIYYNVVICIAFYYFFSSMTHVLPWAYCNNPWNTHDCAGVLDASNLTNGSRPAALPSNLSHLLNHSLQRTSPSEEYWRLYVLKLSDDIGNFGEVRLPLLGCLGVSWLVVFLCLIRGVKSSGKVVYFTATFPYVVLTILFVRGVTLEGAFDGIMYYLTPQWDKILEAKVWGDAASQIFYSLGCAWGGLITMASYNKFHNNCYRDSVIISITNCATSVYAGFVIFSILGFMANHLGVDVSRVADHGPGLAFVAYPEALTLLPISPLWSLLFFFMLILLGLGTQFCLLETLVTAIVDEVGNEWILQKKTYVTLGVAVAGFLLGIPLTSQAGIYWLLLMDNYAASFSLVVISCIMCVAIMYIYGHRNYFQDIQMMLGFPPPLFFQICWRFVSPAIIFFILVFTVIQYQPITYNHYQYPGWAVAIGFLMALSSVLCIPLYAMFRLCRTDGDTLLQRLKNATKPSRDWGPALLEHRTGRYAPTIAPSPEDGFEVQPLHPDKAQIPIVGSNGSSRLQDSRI
Test: Glycine uptake inhibition experiment ([3H]glycine uptake)
Type: cell-based
Details: GlyT1
In short: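 T98G glioma cells expressing human GlyT1 were pretreated 10 min with compound in HEPES buffer pH 7.4 (0.2% BSA), then incubated with compound plus 250 nM final [3H]glycine for 15 min at room temperature. Intracellular radioactivity was counted after NaOH lysis; 10 μM ALX5407 defined non-specific uptake. IC50 came from 10^−9–10^−5 M curves.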

Compound	IC50
O=C(NC(c1ccccc1F)C1(O)CCCC1)c1nccc(C(F)(F)F)c1Cl (single isomer, unassigned) [Compound 61, 3-chloro-N-[(2-fluorophenyl)(1-hydroxycyclopentyl)methyl]-4-(trifluoromethyl)pyridine-2-carboxamide]	3 µM
O=C(NC(c1ccccn1)[C@]1(O)CC[C@@H](F)CC1)c1nccc(C(F)(F)F)c1Cl (single isomer, unassigned) [Compound 244, 3-chloro-N-[(cis-4-fluoro-1-hydroxycyclohexyl)(pyridin-2-yl)methyl]-4-(trifluoromethyl)pyridine-2-carboxamide]	1 µM
O=C(NC(c1ncccc1Cl)[C@]1(O)CC[C@@H](F)CC1)c1nccc(C(F)(F)F)c1Cl (single isomer, unassigned) [Compound 303, 3-chloro-N-[(3-chloropyridin-2-yl)(cis-4-fluoro-1-hydroxycyclohexyl)methyl]-4-(trifluoromethyl)pyridine-2-carboxmaide]	4 µM
[2H]C1([2H])C([2H])([2H])C([2H])([2H])C(O)(C(NC(=O)c2nccc(C(F)(F)F)c2Cl)c2cccc(Cl)c2)C([2H])([2H])C1([2H])[2H] (single isomer, unassigned) [Compound 232, 3-chloro-N-{(3-chlorophenyl)[1-hydroxy(^2H10)cyclohexyl]methyl}-4-(trifluoromethyl)pyridine-2-carboxamide]	1.4 µM
O=C(NC(c1cccc(-c2ccccn2)c1)C1(O)CCC(F)(F)CC1)c1ccnc(C(F)(F)F)c1Cl (single isomer, unassigned) [Compound 189, 3-chloro-N-{(4,4-difluoro-1-hydroxycyclohexyl)[3-(pyridin-2-yl)phenyl]methyl}-2-(trifluoromethyl)pyridine-4-carboxamide]	0.2 µM
O=C(NC(c1ccccc1)[C@]1(O)CC[C@@H](F)CC1)c1nccc(C(F)(F)F)c1Cl (single isomer, unassigned) [Compound 238, 3-chloro-N-[(cis-4-fluoro-1-hydroxycyclohexyl)(phenyl)methyl]-4-(trifluoromethyl)pyridine-2-carboxamide]	0.22 µM
O=C(NC(c1cccc(Cl)n1)C1(O)CCC(F)(F)CC1)c1cc(C(F)(F)F)ncc1Cl (single isomer, unassigned) [Compound 353, 5-chloro-N-[(6-chloropyridin-2-yl)(4,4-difluoro-1-hydroxycyclohexyl)methyl]-2-(trifluoromethyl)pyridine-4-carboxamide]	0.15 µM
O=C(NC(c1cc(F)cc(Cl)c1)C1(O)CCCC1)c1nccc(C(F)(F)F)c1Cl (stereo not drawn) [Compound 88, 3-chloro-N-[(3-chloro-5-fluroophenyl)(1-hydroxycyclopentyl)methyl]-4-(trifluoromethyl)pyridine-2-carboxamide]	0.18 µM
O=C(NC(c1cccc(F)c1Cl)[C@]1(O)CC[C@@H](F)CC1)c1nccc2ncccc12 (single isomer, unassigned) [Compound 256, N-[(2-chloro-3-fluorophenyl)(cis-4-fluoro-1-hydroxycyclohexyl)methyl]-1,6-naphthyridin-5-carboxamide]	2.1 µM
O=C(NC(c1cccc(F)c1Cl)[C@]1(O)CC[C@@H](F)CC1)c1c(Cl)cccc1C(F)(F)F (single isomer, unassigned) [Compound 306, 2-chloro-N-[(2-chloro-3-fluorophenyl)(cis-4-fluoro-1-hydroxycyclohexyl)methyl]-6-(trifluoromethyl)benzamide]	0.67 µM
O=C(NC(c1cnccc1Cl)[C@]1(O)CC[C@@H](F)CC1)c1nccc(C(F)(F)F)c1Cl (single isomer, unassigned) [Compound 308, 3-chloro-N-[(4-chloropyridin-3-yl)(cis-4-fluoro-1-hydroxycyclohexyl)methyl]-4-(trifluoromethyl)pyridine-2-carboxamide]	0.38 µM
Cc1c(Cl)ccnc1C(=O)NC(c1cccc(F)c1Cl)[C@]1(O)CC[C@@H](F)CC1 (single isomer, unassigned) [Compound 224, 4-chloro-N-[(2-chloro-3-fluorophenyl)(cis-4-fluoro-1-hydroxycyclohexyl)methyl]-3-methylpyridine-2-carboxamide]	0.27 µM
CS(=O)(=O)c1cc(C(F)(F)F)cnc1C(=O)NC(c1cccc(F)c1Cl)[C@]1(O)CC[C@@H](F)CC1 (single isomer, unassigned) [Compound 389, N-[(2-chloro-3-fluorophenyl)(cis-4-fluoro-1-hydroxycyclohexyl)methyl]-3-(methylsulfonyl)-5-(trifluoromethyl)pyridine-2-carboxamide]	1.8 µM
CCn1cc(-c2cccc(C(NC(=O)c3ccc(C(F)(F)F)nc3C)C3(O)CCC(F)(F)CC3)c2)cn1 (stereo not drawn) [Compound 140, N-{(4,4-difluoro-1-hydroxycyclohexyl)[3-(1-ethyl-1H-pyrazol-4-yl)phenyl]methyl}-2-methyl-6-(trifluoromethyl)pyridine-3-carboxamide]	3.3 µM

Next, values leading:

IC50	Compound
0.3 µM	O=C(NC(c1ncccc1Cl)[C@]1(O)CC[C@@H](F)CC1)c1nccc(C(F)(F)F)c1Cl (single isomer, unassigned) [Compound 361, 3-chloro-N-[(3-chloropyridin-2-yl)(cis-4-fluoro-1-hydroxycyclohexyl)methyl]-4-(trifluoromethyl)pyridine-2-carboxamide]
0.26 µM	CCn1cc(-c2cccc(C(NC(=O)c3cccc(C(F)(F)F)c3Cl)C3(O)CCC(F)(F)CC3)c2)cn1 (stereo not drawn) [Compound 118, 2-chloro-N-{(4,4-difluoro-1-hydroxycyclohexyl)[3-(1-ethyl-1H-pyraozl-4-yl)phenyl]methyl}-3-(trifluoromethyl)benzamide]
8 µM	O=C(NC(c1cccc(Cl)c1)C1(O)CCCC1)c1nccc(C(F)(F)F)c1Cl (single isomer, unassigned) [Compound 55, 3-chloro-N-[(3-chlorophenyl)(1-hydroxycyclopentyl)methyl]-4-(trifluoromethyl)pyridine-2-carboxamide]
0.21 µM	O=C(N[C@@H](c1cccc(Cl)c1)[C@]1(O)CC[C@H](F)CC1)c1nccc(C(F)(F)F)c1Cl [Compound 187, 3-chloro-N-[(S)-(3-chlorophenyl)(trans-4-fluoro-1-hydroxycyclohexyl)methyl]-4-(trifluoromethyl)pyridine-2-carboxamide]
7.4 µM	CCn1cc(-c2cccc(C(NC(=O)c3cccc(C(F)(F)F)c3Cl)C3(O)CCC(F)(F)CC3)c2)cn1 (single isomer, unassigned) [Compound 121, 2-chloro-N-{(4,4-difluoro-1-hydroxycyclohexyl)[3-(1-ethyl-1H-pyrazol-4-yl)phenyl]methyl}-3-(trifluoromethyl)benzamide]
1 µM	O=C(NC(c1ccccc1)C1(O)CCCC1)c1cccc(C(F)(F)F)c1Cl (stereo not drawn) [Compound 11, 2-chloro-N-[(1-hydroxycyclopentyl)(phenyl)methyl]-3-(trifluoromethyl)benzamide]
0.45 µM	O=C(NC(c1cccc(-n2ccnn2)c1)C1(O)CCCC1)c1nccc(C(F)(F)F)c1Cl (stereo not drawn) [Compound 78, 3-chloro-N-{(1-hydroxycyclopentyl)[3-(1H-1,2,3-triazol-1-yl)phenyl]methyl}-4-(trifluoromethyl)pyridine-2-carboxamide]
